{
  "source": "patent US9217014B2",
  "about": "“Antifungal agents and uses thereof” (Cidara Therapeutics, Inc., priority 2011, dated 2015)",
  "test_system": "C. albicans R303",
  "assay": "mouse candidiasis infection model, IP administration, kidney fungal burden",
  "type": "in vivo",
  "conditions": "for log reduction at 0.5 mg/kg / log reduction at 1.5 mg/kg / log reduction at 4.5 mg/kg: Candida albicans, R303, ip, 24 h, read-out: Difference from 24-h control; for Mean log10 CFU/kidneys (±SEM): kidneys 24 h after infection; for overall performance in reducing C. albicans CFUs in the kidneys of the mice: conclusion over all runs",
  "description": "The objective of these studies was to evaluate the efficacy of test compounds in the mouse candidiasis infection model. Amounts of test articles are uncorrected.\nThe strain, C. albicans R303 was transferred from frozen storage onto Sabauroud dextrose agar (SDA) plates and grown for ˜24 hr at 35° C. The inoculum was prepared by transferring colonies from the plate to phosphate buffered saline (PBS) and the concentration adjusted to approximately 10^6 CFU/mL with the aid of a spectrophotometer. The stock was diluted 1:9 to prepare the inoculum. Prior to each run the concentration was verified using the dilution plate count method.\nFemale CD-1 mice were used in this study. The animals were approximately seven-weeks-old at the start of the study and weighed about 15-30 g.\nMice were made neutropenic with IP injections of cyclophosphamide (150 mg/kg in 10 mL/kg) at 4 and 1 day before inoculation. Each animal was inoculated with the appropriate concentration by injecting 0.1 mL of inoculum into a tail vein. The test compounds were administered IP at 2 hr after infection.\nIn a typical procedure, the kidneys were collected from four mice in control group 1 (untreated) at 2 hr after infection, and from another four mice in control group 2 (untreated) at 24 hr after infection. Kidneys were removed aseptically from each mouse and were combined in a sterile tube. An aliquot (2 mL) of sterile PBS was added to each tube and the contents homogenized with a tissue homogenizer (Polytron 3100). Serial dilutions of the tissue homogenates were conducted and 0.1 mL aliquots were spread on SDA plates and the plates incubated at 35° C. overnight. The CFU/kidneys were determined from colony counts. Data were analyzed using one-way ANOVA with either the Tukey-Kramer Multiple Comparisons Test or Dunnett Test (GraphPad InStat version 3.06, GraphPad Software, San Diego, Calif.).\nThe data reported below are the average of four mice. Each run included a separate control and each is tabulated separately.",
  "note": "Read-outs that look alike come from different tables or passages of the source.",
  "data": [
    {"smiles": "CCCCCOc1ccc(-c2ccc(-c3ccc(C(=O)N[C@H]4C[C@@H](O)C(NCCOCCOC)NC(=O)C5[C@@H](O)[C@@H](C)CN5C(=O)C([C@@H](C)O)NC(=O)C([C@H](O)[C@@H](O)c5ccc(O)cc5)NC(=O)C5C[C@@H](O)CN5C(=O)C([C@@H](C)O)NC4=O)cc3)cc2)cc1", "note": "(stereo partly drawn) [compound 9]", "values": [
      {"measurement": "log reduction at 0.5 mg/kg", "setting": "Fourth run, IP 0.5 mg/kg", "value": 0.07},
      {"measurement": "log reduction at 1.5 mg/kg", "setting": "Fourth run, IP 1.5 mg/kg", "value": 1.02},
      {"measurement": "Mean log10 CFU/kidneys (±SEM)", "setting": "Fourth run, IP 0.5 mg/kg", "value": "5.04 ± 0.13", "unit": "log10 CFU/kidneys"},
      {"measurement": "Mean log10 CFU/kidneys (±SEM)", "setting": "Fourth run, IP 1.5 mg/kg", "value": "4.09 ± 0.23", "unit": "log10 CFU/kidneys"},
      {"measurement": "overall performance in reducing C. albicans CFUs in the kidneys of the mice", "value": "performed poorly"}
    ]},
    {"smiles": "CCCCCOc1ccc(-c2ccc(-c3ccc(C(=O)N[C@H]4C[C@@H](O)C(OCCOCC[N+](C)(C)C)NC(=O)C5[C@@H](O)[C@@H](C)CN5C(=O)C([C@@H](C)O)NC(=O)C([C@H](O)[C@@H](O)c5ccc(O)cc5)NC(=O)C5C[C@@H](O)CN5C(=O)C([C@@H](C)O)NC4=O)cc3)cc2)cc1", "note": "(stereo partly drawn) [compound 6]", "values": [
      {"measurement": "log reduction at 0.5 mg/kg", "setting": "Second run, IP 0.5 mg/kg", "value": 0.13},
      {"measurement": "log reduction at 1.5 mg/kg", "setting": "Second run, IP 1.5 mg/kg", "value": 3.27},
      {"measurement": "log reduction at 4.5 mg/kg", "setting": "Second run, IP 4.5 mg/kg", "value": 4.87},
      {"measurement": "Mean log10 CFU/kidneys (±SEM)", "setting": "Second run, IP 0.5 mg/kg", "value": "4.75 ± 0.19", "unit": "log10 CFU/kidneys"},
      {"measurement": "Mean log10 CFU/kidneys (±SEM)", "setting": "Second run, IP 1.5 mg/kg", "value": "1.60 ± 0.17", "unit": "log10 CFU/kidneys"},
      {"measurement": "Mean log10 CFU/kidneys (±SEM)", "setting": "Second run, IP 4.5 mg/kg", "value": "0.00 ± 0.00", "unit": "log10 CFU/kidneys"},
      {"measurement": "overall performance in reducing C. albicans CFUs in the kidneys of the mice", "value": "performed strongly"}
    ]},
    {"smiles": "CCCCCOc1ccc(-c2ccc(-c3ccc(C(=O)N[C@H]4C[C@@H](O)C(NCCOCCOCCOCCOC)NC(=O)C5[C@@H](O)[C@@H](C)CN5C(=O)C([C@@H](C)O)NC(=O)C([C@H](O)[C@@H](O)c5ccc(O)cc5)NC(=O)C5C[C@@H](O)CN5C(=O)C([C@@H](C)O)NC4=O)cc3)cc2)cc1", "note": "(stereo partly drawn) [compound 10]", "values": [
      {"measurement": "log reduction at 0.5 mg/kg", "setting": "Fourth run, IP 0.5 mg/kg", "value": 0.21},
      {"measurement": "log reduction at 1.5 mg/kg", "setting": "Fourth run, IP 1.5 mg/kg", "value": 0.01},
      {"measurement": "Mean log10 CFU/kidneys (±SEM)", "setting": "Fourth run, IP 0.5 mg/kg", "value": "4.89 ± 0.06", "unit": "log10 CFU/kidneys"},
      {"measurement": "Mean log10 CFU/kidneys (±SEM)", "setting": "Fourth run, IP 1.5 mg/kg", "value": "5.09 ± 0.11", "unit": "log10 CFU/kidneys"},
      {"measurement": "overall performance in reducing C. albicans CFUs in the kidneys of the mice", "value": "performed poorly"}
    ]},
    {"smiles": "CCCCCOc1ccc(-c2ccc(-c3ccc(C(=O)N[C@H]4C[C@@H](O)C(NCCN)NC(=O)C5[C@@H](O)[C@@H](C)CN5C(=O)C([C@@H](C)O)NC(=O)C([C@H](O)[C@@H](O)c5ccc(O)cc5)NC(=O)C5C[C@@H](O)CC5C(=O)C([C@@H](C)O)NC4=O)cc3)cc2)cc1", "note": "(stereo partly drawn) [compound 15]", "values": [
      {"measurement": "log reduction at 0.5 mg/kg", "setting": "Fourth run, IP 0.5 mg/kg", "value": 3.01},
      {"measurement": "log reduction at 1.5 mg/kg", "setting": "Fourth run, IP 1.5 mg/kg", "value": 3.81},
      {"measurement": "log reduction at 0.5 mg/kg", "setting": "Second run, IP 0.5 mg/kg", "value": 3.63},
      {"measurement": "log reduction at 1.5 mg/kg", "setting": "Second run, IP 1.5 mg/kg", "value": 3.91},
      {"measurement": "log reduction at 4.5 mg/kg", "setting": "Second run, IP 4.5 mg/kg", "value": 4.15},
      {"measurement": "Mean log10 CFU/kidneys (±SEM)", "setting": "Fourth run, IP 0.5 mg/kg", "value": "2.09 ± 0.16", "unit": "log10 CFU/kidneys"},
      {"measurement": "Mean log10 CFU/kidneys (±SEM)", "setting": "Fourth run, IP 1.5 mg/kg", "value": "1.29 ± 0.18", "unit": "log10 CFU/kidneys"},
      {"measurement": "Mean log10 CFU/kidneys (±SEM)", "setting": "Second run, IP 0.5 mg/kg", "value": "1.25 ± 0.45", "unit": "log10 CFU/kidneys"},
      {"measurement": "Mean log10 CFU/kidneys (±SEM)", "setting": "Second run, IP 1.5 mg/kg", "value": "0.96 ± 0.57", "unit": "log10 CFU/kidneys"},
      {"measurement": "Mean log10 CFU/kidneys (±SEM)", "setting": "Second run, IP 4.5 mg/kg", "value": "0.73 ± 0.42", "unit": "log10 CFU/kidneys"},
      {"measurement": "overall performance in reducing C. albicans CFUs in the kidneys of the mice", "value": "performed strongly"}
    ]},
    {"smiles": "CCCCCOc1ccc(-c2ccc(-c3ccc(C(=O)N[C@H]4C[C@@H](O)C(NCCOC)NC(=O)C5[C@@H](O)[C@@H](C)CN5C(=O)C([C@@H](C)O)NC(=O)C([C@H](O)[C@@H](O)c5ccc(O)cc5)NC(=O)C5C[C@@H](O)CN5C(=O)C([C@@H](C)O)NC4=O)cc3)cc2)cc1", "note": "(stereo partly drawn) [compound 8]", "values": [
      {"measurement": "log reduction at 0.5 mg/kg", "setting": "Fourth run, IP 0.5 mg/kg", "value": 0.32},
      {"measurement": "log reduction at 1.5 mg/kg", "setting": "Fourth run, IP 1.5 mg/kg", "value": 1.66},
      {"measurement": "Mean log10 CFU/kidneys (±SEM)", "setting": "Fourth run, IP 0.5 mg/kg", "value": "4.78 ± 0.15", "unit": "log10 CFU/kidneys"},
      {"measurement": "Mean log10 CFU/kidneys (±SEM)", "setting": "Fourth run, IP 1.5 mg/kg", "value": "3.45 ± 0.37", "unit": "log10 CFU/kidneys"},
      {"measurement": "overall performance in reducing C. albicans CFUs in the kidneys of the mice", "value": "performed poorly"}
    ]}
  ]
}
